The test has as its system MDA-MB-231 cells. The test can be described thus: Extracellular lactate production inhibition after 4 h, MDA-MB-231. The note with it: Homo sapiens, MDA-MB-231.
On to `COc1ccccc1-c1ccc(CN(C=O)c2ccccc2C#Cc2ccc(C(=O)O)nc2)cc1` [Compound 191, 5-(2-{2-[N-({2′-methoxy-[1,1′-biphenyl]-4-yl}methyl)formamido]phenyl}ethynyl)-pyridine-2-carboxylic acid], for which the IC50 (usually the concentration at which inhibition is half-maximal) fell in the range of 10 to 100 nM.
Then `COc1ccc(S(=O)(=O)Nc2ccccc2C#Cc2ccc(C(=O)NO)nc2)c2ncccc12` [Compound 216, N-hydroxy-5-{2-[2-(5-methoxyquinoline-8-sulfonamido)phenyl]ethynyl}pyridine-2-carboxamide], with 100 to 1000 nM; and `COc1ccc(S(=O)(=O)Nc2ccccc2C#Cc2ccc(C(=O)O)c(C#N)c2)c2ccccc12` [Compound 21, 2-cyano-4-{2-[2-(4-methoxynaphthalene-1-sulfonamido)phenyl]ethynyl}benzoic acid], with 1000 to 100000 nM.
With `COc1ccc(S(=O)(=O)Nc2ccccc2C#Cc2ccc(C(=O)O)nc2)c(Cl)c1` [Compound 287, 5-{2-[2-(2-chloro-4-methoxybenzene-sulfonamido)phenyl]ethynyl}pyridine-2-carboxylic acid], the IC50 was 1000 to 100000 nM.
`CCc1ccc(S(=O)(=O)Nc2ccccc2C#Cc2ccc(C(=O)O)nc2)c2ncccc12` [Compound 411, 5-{2-[2-(5-ethylquinoline-8-sulfonamido)phenyl]ethynyl}pyridine-2-carboxylic acid] came in with an IC50 of 100 to 1000 nM.
As for `COc1cc(C(=O)O)ncc1C#Cc1cc(Cl)ccc1NS(=O)(=O)c1c(C)ccc2cccnc12` [Compound 361, 5-{2-[5-chloro-2-(7-methylquinoline-8-sulfonamido)phenyl]ethynyl}-4-methoxypyridine-2-carboxylic acid], the IC50 lay within 1 to 10 nM.
Then `COc1cccc(-c2cccc(S(=O)(=O)Nc3ccccc3C#Cc3ccc(C(=O)O)nc3)c2)n1` [Compound 127, 5-(2-{2-[3-(6-methoxypyridin-2-yl)benzenesulfonamido]phenyl}-ethynyl)pyridine-2-carboxylic acid], with 100 to 1000 nM; and `CCNc1cc(C#Cc2ccccc2NS(=O)(=O)c2ccc(OC)c(C)c2C)cnc1C(=O)O` [Compound 379, 3-(ethylamino)-5-{2-[2-(4-methoxy-2,3-dimethylbenzenesulfonamido)phenyl]ethynyl}pyridine-2-carboxylic acid], with 10 to 100 nM; and `Cc1ccc2cccnc2c1S(=O)(=O)Nc1ccc(C(C)C)cc1C#Cc1ccc(C(=O)O)nc1` [Compound 416, 5-{2-[2-(7-methylquinoline-8-sulfonamido)-5-(propan-2-yl)phenyl]ethynyl}pyridine-2-carboxylic acid], with 100 to 1000 nM.
`CCCCOC(=O)c1ccc(C#Cc2ccccc2NS(=O)(=O)c2ccc(OC)c3cccnc23)cn1` [Compound 168, butyl 5-{2-[2-(5-methoxyquinoline-8-sulfonamido)phenyl]ethynyl}pyridine-2-carboxylate] had an IC50 of 10 to 100 nM.
In the case of `COc1ccc2cccnc2c1S(=O)(=O)Nc1ccccc1C#Cc1ccc(C(=O)O)nc1` [Compound 347, 5-{2-[2-(7-methoxyquinoline-8-sulfonamido)phenyl]ethynyl}pyridine-2-carboxylic acid], the IC50 fell in the range of 100 to 1000 nM.
In turn, `CS(=O)(=Nc1ccccc1C#Cc1ccc(C(=O)O)nc1)c1ccc(F)cc1` (stereo not drawn) [Compound 431, 5-[2-(2-{[(4-fluorophenyl)(methyl)oxo-λ6-sulfanylidene]amino}phenyl)ethynyl] pyridine-2-carboxylic acid] showed an IC50 of 1000 to 100000 nM.
Turning to `CS(=O)(=Nc1ccccc1C#Cc1ccc(C(=O)O)nc1)c1ccccc1` (stereo not drawn) [Compound 424, 5-[2-(2-{[methyl(oxo)phenyl-λ6-sulfanylidene]amino}phenyl)ethynyl] pyridine-2-carboxylic acid], the IC50 was in the range of 1000 to 100000 nM.
To `COc1ccc(S(=O)(=O)Nc2ccc(C)cc2C#Cc2ccc(C(=O)O)nc2)c(C)c1C` [Compound 413, 5-{2-[2-(4-methoxy-2,3-dimethylbenzenesulfonamido)-5-methylphenyl]ethynyl}pyridine-2-carboxylic acid] belongs 10 to 100 nM.
Then `Cc1ccc2nsnc2c1S(=O)(=O)Nc1ccccc1C#Cc1ccc(C(=O)O)nc1` [Compound 290, 5-{2-[2-(5-methyl-2,1,3-benzothia-diazole-4-sulfonamido)phenyl]-ethynyl}pyridine-2-carboxylic acid], with 1000 to 100000 nM; and `O=C(O)c1ccc(C#Cc2ccccc2NS(=O)(=O)c2cccc(Br)c2)cn1` [Compound 95, 5-{2-[2-(3-bromobenzenesulfonamido)phenyl]-ethynyl}pyridine-2-carboxylic acid], with 1000 to 100000 nM; and `COC(=O)c1ccc(C#Cc2cc([N+](=O)[O-])ccc2NS(=O)(=O)c2c(C)ccc3cccnc23)cn1` [Compound 244, methyl 5-{2-[2-(7-methylquinoline-8-sulfonamido)-5-nitrophenyl]ethynyl}-pyridine-2-carboxylate], with 10 to 100 nM.
In turn, `Cc1cc(C(=O)O)ncc1C#Cc1cc(F)ccc1NS(=O)(=O)c1ccc(-c2ccccc2)cc1` [Compound 138, 5-[2-(2-{[1,1′-biphenyl]-4-sulfonamido}-5-fluorophenyl)ethynyl]-4-methylpyridine-2-carboxylic acid] had an IC50 of 100 to 1000 nM.
Then `O=C(O)c1ccc(C#Cc2ccccc2NS(=O)(=O)c2cccc3cc(Cl)cnc23)cn1` [Compound 271, 5-[2-(3-Chloro-quinoline-8-sulfonyl-amino)-phenylethynyl]-pyridine-2-carboxylic acid], with 100 to 1000 nM; and `Cc1ccccc1-c1cccc(S(=O)(=O)Nc2ccccc2C#Cc2ccc(C(=O)O)nc2)c1` [Compound 94, 5-[2-(2-{2′-methyl-[1,1′-biphenyl]-3-sulfonamido}phenyl)ethynyl]pyridine-2-carboxylic acid], with 1000 to 100000 nM.
For `CCOc1ccc(S(=O)(=O)Nc2ccccc2C#Cc2ccc(C(=O)O)nc2)c2ncccc12` [Compound 336, 5-{2-[2-(5-ethoxyquinoline-8-sulfonamido)phenyl]ethynyl}pyridine-2-carboxylic acid], the IC50 was in the range of 10 to 100 nM.
For `COc1ccc(S(=O)(=O)Nc2cc(C(=O)NCCOCc3ccccc3)ccc2C#Cc2ccc(C(=O)O)nc2)c2ncccc12` [Compound 184, 5-[2-(4-{[2-(benzyloxy)ethyl]carbamoyl}-2-(5-methoxyquinoline-8-sulfonamido)-phenyl)ethynyl]pyridine-2-carboxylic acid], the IC50 was 1000 to 100000 nM.
Take `Cc1cc(S(=O)(=O)Nc2ccccc2C#Cc2ccc(C(=O)O)nc2)c2ncccc2c1` [Compound 265, 5-[2-(6-Methyl-quinoline-8-sulfonyl-amino)-phenylethynyl]-pyridine-2-carboxylic acid]: the IC50 fell in the range of 100 to 1000 nM.
Compound `Cc1nc(C(=O)O)ccc1C#Cc1ccccc1NS(=O)(=O)c1ccc2ccccc2c1` [Compound 51, 6-methyl-5-{2-[2-(naphthalene-2-sulfonamido)phenyl]ethynyl}pyridine-2-carboxylic acid] returned an IC50 of 1000 to 100000 nM.
For `CSc1nccc(-c2ccc(S(=O)(=O)Nc3ccccc3C#Cc3ccc(C(=O)O)cc3)s2)n1` [Compound 282, 4-[2-(2-{5-[2-(methylsulfanyl)pyrimidin-4-yl]thiophene-2-sulfonamido}phenyl)-ethynyl]benzoic acid], the IC50 was in the range of 1000 to 100000 nM.
Regarding `COc1ccc(S(=O)(=O)Nc2ccccc2C#Cc2ccc(C(N)=O)cc2)c2ccccc12` [Compound 261, 4-[2-(4-Methoxy-naphthalene-1-sulfonylamino)-phenylethynyl]-benzamide], the IC50 is 1000 to 100000 nM.
In turn, `COc1c(C#Cc2ccccc2NS(=O)(=O)c2ccc(OC)c3cccnc23)cnc(C(=O)O)c1C` [Compound 370, 4-Methoxy-5-[2-(5-methoxy-quinoline-8-sulfonylamino)-phenylethynyl]-3-methyl-pyridine-2-carboxylic acid] yielded an IC50 of 100 to 1000 nM.
Take `COc1cc(C(=O)O)ncc1C#Cc1cc(Br)ccc1NS(=O)(=O)c1ccc(OC)c2cccnc12` [Compound 356, 5-{2-[5-bromo-2-(5-methoxyquinoline-8-sulfonamido)phenyl]ethynyl}-4-methoxypyridine-2-carboxylic acid]: the IC50 fell in the range of 1 to 10 nM.
`O=C(O)c1ccc(C#Cc2ccccc2NS(=O)(=O)c2cccc3ccccc23)c2ccccc12` [Compound 84, 4-{2-[2-(naphthalene-1-sulfonamido)phenyl]ethynyl}-naphthalene-1-carboxylic acid] had an IC50 of 1000 to 100000 nM.
In turn, `O=C(O)c1ccc(C#Cc2ccccc2NS(=O)(=O)c2ccc(Cl)s2)cn1` [Compound 304, 5-{2-[2-(5-chlorothiophene-2-sulfonamido)phenyl]ethynyl}pyridine-2-carboxylic acid] registered an IC50 of 1000 to 100000 nM.
As to `O=C(O)c1ccc(C#Cc2ccccc2NS(=O)(=O)c2ccc3occc3c2)cn1` [Compound 297, 5-{2-[2-(1-benzofuran-5-sulfonamido)phenyl]ethynyl}pyridine-2-carboxylic acid], the IC50 was 1000 to 100000 nM.
Compound `CCOc1ccc(S(=O)(=O)Nc2ccccc2C#Cc2ccc(C(=O)O)nc2)c2ccccc12` [Compound 284, 5-{2-[2-(4-ethoxynaphthalene-1-sulfonamido)phenyl]ethynyl}pyridine-2-carboxylic acid] came in with an IC50 of 10 to 100 nM.
To `COc1ccc(S(=O)(=O)Nc2ccccc2C#Cc2cnc(C(=O)O)c3ccccc23)c(C)c1C` [Compound 395, 4-[2-(4-Methoxy-2,3-dimethyl-benzenesulfonylamino)-phenylethynyl]-isoquinoline-1-carboxylic acid] belongs 100 to 1000 nM.
To `CCc1ccc2cccnc2c1S(=O)(=O)Nc1ccccc1C#Cc1ccc(C(=O)O)nc1` [Compound 342, 5-{2-[2-(7-ethylquinoline-8-sulfonamido)phenyl]ethynyl}pyridine-2-carboxylic acid] belongs 1 to 10 nM; to `Cc1cc(C#Cc2cc(F)ccc2NS(=O)(=O)c2ccc(-c3ccccc3)cc2)cnc1C(=O)O` [Compound 308, 5-[2-(2-{[1,1′-biphenyl]-4-sulfonamido}-5-fluorophenyl)ethynyl]-3-methylpyridine-2-carboxylic acid], 100 to 1000 nM.
To `COc1ccc(S(=O)(=O)Nc2ccccc2C#Cc2cnc(C(=O)O)c(N)c2)c(C)c1C` [Compound 402, 3-amino-5-{2-[2-(4-methoxy-2,3-dimethylbenzenesulfonamido)phenyl]ethynyl}pyridine-2-carboxylic acid] belongs 10 to 100 nM.

These data come from patent US12351570B2 (MERCK PATENT GMBH, priority 2018, dated 2025).
